Experimental data from publication PMC6792352, “Limited Chemical Structural Diversity Found to Modulate Thyroid Hormone Receptor in the Tox21 Chemical Library” (Environmental Health Perspectives, 2019).
Structures can show the parent of a compound that is named as a salt. Where two headings read alike, the source gives them in different places.

Columns and labels:
[1] = tested on: GH3-TRE-Luc cell line; conditions: read-out: AC50 (uM) modified / 1000, viability, 1 nM T3 present, 24 h
[2] = in vitro; conditions: rat, gh3-tre-luc cells, AC50 (uM) modified / 1000

## Oc1c(Cl)c(Cl)c(Cl)c(Cl)c1Cl [Pentachlorophenol]
[1]; Tox21_110001=Tox21_300023
  CC50: 29.7 µM
[2]
  CC50 at 24 h: 34.5 µM

## O=c1[nH]c2ccccc2n1C1CCN(CCCC(c2ccc(F)cc2)c2ccc(F)cc2)CC1 [Pimozide]
[1]; Tox21_110001=Tox21_110224
  CC50: 7.02 µM
[2]
  CC50 at 24 h: 8.93 µM

## CCCCCCCCCc1ccc(O)cc1 [4-Nonylphenol]
[1]; Tox21_110001=Tox21_303647
  CC50: 42.8 µM
[2]
  CC50 at 24 h: 41.5 µM

## O=c1cc(-c2ccc(O)cc2)oc2cc(O)cc(O)c12 [Apigenin]
[1]; Tox21_110001=Tox21_302884
  CC50: 77.9 µM
[2]
  CC50 at 24 h: 42.3 µM

## CCCCCCCCOC(=O)c1ccc(O)cc1 [Octylparaben]
[1]; Tox21_110001=Tox21_303430
  CC50: 46 µM
[2]
  CC50 at 24 h: 60.4 µM

## Cc1ccc(C(C)(C)C)c(O)c1 [2-tert-Butyl-5-methylphenol]
[1]; Tox21_110001=Tox21_300486
  CC50: 47.9 µM
[2]
  CC50 at 24 h: 81 µM

## N=c1ccn2c(n1)O[C@H]1[C@H](O)[C@@H](CO)O[C@H]12 [Cyclocytidine]
[1]; Tox21_110001=Tox21_111571
  CC50: 1.18 µM
[2]
  CC50 at 24 h: 1.45 µM

## Oc1ccc2ccccc2c1N=Nc1ccccc1 [C.I. Solvent Yellow 14]
[1]; Tox21_110001=Tox21_300297
  CC50: 62.3 µM
[2]
  CC50 at 24 h: > 90 µM

## CCN(CC)CCOc1ccc(C(=C(Cl)c2ccccc2)c2ccccc2)cc1 [Clomiphene]
[1]; Tox21_110001=Tox21_113110
  CC50: 7.27 µM
[2]
  CC50 at 24 h: 6.61 µM

## C=CC(=O)OCC(CO)(COC(=O)C=C)COC(=O)C=C [Pentaerythritol triacrylate]
[1]; Tox21_110001=Tox21_303252
  CC50: 2.61 µM
[2]
  CC50 at 24 h: 1.77 µM

## CCCCC/C=C/C=C/C=O [(E,E)-2,4-Decadienal]
[1]; Tox21_110001=Tox21_303165
  CC50: 70.3 µM
[2]
  CC50 at 24 h: > 90 µM

## CC(C)(C)CC(C)(C)c1ccc(O)c(-n2nc3ccccc3n2)c1 [Octrizole]
[1]; Tox21_110001=Tox21_112086
  CC50: 21.6 µM
[1]; Tox21_110001=Tox21_300498
  CC50: 32.7 µM
[2]
  CC50 at 24 h: 35.4 µM

## CC1(C)C(C(=O)OC(C#N)c2cccc(Oc3ccccc3)c2)C1(C)C (stereo not drawn) [Fenpropathrin]
[1]; Tox21_110001=Tox21_300882
  CC50: 80.7 µM
[2]
  CC50 at 24 h: > 90 µM

## Oc1ccc2cc(SSc3ccc4cc(O)ccc4c3)ccc2c1 [6-Hydroxy-2-naphthyl disulfide]
[1]; Tox21_110001=Tox21_303354
  CC50: 81.2 µM
[2]
  CC50 at 24 h: > 90 µM

## CC[n+]1c(-c2ccccc2)c2cc(N)ccc2c2ccc(N)cc21 [Ethidium bromide]
[1]; Tox21_110001=Tox21_111123
  CC50: 37.9 µM
[2]
  CC50 at 24 h: 47.9 µM

## OCCOCCN1CCN(C(c2ccccc2)c2ccc(Cl)cc2)CC1 (stereo not drawn) [Hydroxyzine]
[1]; Tox21_110001=Tox21_302563
  CC50: 16.6 µM
[2]
  CC50 at 24 h: 18.1 µM

## COC(=O)C1=C(C)NC(C)=C(C(=O)OCC(C)C)C1c1ccccc1[N+](=O)[O-] (stereo not drawn) [Nisoldipine]
[1]; Tox21_110001=Tox21_112251
  CC50: 37.2 µM
[2]
  CC50 at 24 h: 51.4 µM

## O=C1c2ccccc2C(=O)N1SC1CCCCC1 [N-(Cyclohexylthio)phthalimide]
[1]; Tox21_110001=Tox21_303596
  CC50: 23.2 µM
[2]
  CC50 at 24 h: 37 µM

## C(=NC1CCCCC1)=NC1CCCCC1 [Dicyclohexylcarbodiimide]
[1]; Tox21_110001=Tox21_303237
  CC50: 49.8 µM
[2]
  CC50 at 24 h: > 90 µM

## CCCCC/C=C\C/C=C\CCCCCCCC(=O)O [Linoleic acid]
[1]; Tox21_110001=Tox21_303080
  CC50: 58.3 µM
[2]
  CC50 at 24 h: > 90 µM

## O=P(OC(CCl)CCl)(OC(CCl)CCl)OC(CCl)CCl [Tris(1,3-dichloro-2-propyl) phosphate]
[1]; Tox21_110001=Tox21_300194
  CC50: 36.6 µM
[2]
  CC50 at 24 h: 61.2 µM

## O=C(Nc1ccccc1SSc1ccccc1NC(=O)c1ccccc1)c1ccccc1 [2,2'-Dibenzoylaminodiphenyl disulfide]
[1]; Tox21_110001=Tox21_303466
  CC50: 72.6 µM
[2]
  CC50 at 24 h: 89.8 µM

## CCC(CC)Nc1c([N+](=O)[O-])cc(C)c(C)c1[N+](=O)[O-] [Pendimethalin]
[1]; Tox21_110001=Tox21_300867
  CC50: > 90 µM
[2]
  CC50 at 24 h: 76.7 µM

## CC[C@@]1([C@@H]2O[C@@H]([C@H]3O[C@@](O)(CO)[C@H](C)C[C@@H]3C)C[C@@H]2C)CC[C@H]([C@]2(C)CC[C@]3(C[C@H](O)[C@@H](C)[C@@H]([C@@H](C)[C@@H](OC)[C@H](C)C(=O)O)O3)O2)O1 [Monensin sodium]
[1]; Tox21_110001=Tox21_113191
  CC50: 0.38 µM
[2]
  CC50 at 24 h: 0.446 µM

## CCN(CC)CCSC(=O)C(c1ccccc1)c1ccccc1 [Thiphenamil]
[1]; Tox21_110001=Tox21_111676
  CC50: 30.2 µM
[2]
  CC50 at 24 h: 41 µM

## CC(CN1c2ccccc2Sc2ccccc21)N(C)C (stereo not drawn) [Promethazine]
[1]; Tox21_110001=Tox21_110227
  CC50: 17.9 µM

## CC/N=c1\cc2oc3cc(NCC)c(C)cc3c(-c3ccccc3C(=O)OCC)c-2cc1C [Rhodamine 6G]
[1]; Tox21_110001=Tox21_201597
  CC50: 0.49 µM
[1]; Tox21_110001=Tox21_302898
  CC50: 1.44 µM

## Nc1ncn([C@@H]2O[C@H](CO)[C@@H](O)[C@H]2O)c(=O)n1 [5-Azacytidine]
[1]; Tox21_110001=Tox21_111032
  CC50: 5.77 µM
[1]; Tox21_110001=Tox21_302985
  CC50: 19.3 µM

## Clc1ccc(COC(Cn2ccnc2)c2ccc(Cl)cc2Cl)cc1 (stereo not drawn) [Econazole nitrate]
[1]; Tox21_110001=Tox21_110852
  CC50: 13.9 µM
[1]; Tox21_110001=Tox21_200771
  CC50: 23.8 µM
[1]; Tox21_110001=Tox21_303391
  CC50: 29.6 µM

## [H]/N=C(\N/C(=N/[H])NCCCCCCNC(=N)NC(=N)Nc1ccc(Cl)cc1)Nc1ccc(Cl)cc1 [Chlorhexidine diacetate]
[1]; Tox21_110001=Tox21_302363
  CC50: 5.83 µM

## N=C(N)c1ccc(OCCCCCOc2ccc(C(=N)N)cc2)cc1 [Pentamidine isethionate]
[1]; Tox21_110001=Tox21_110742
  CC50: 23.4 µM
[1]; Tox21_110001=Tox21_201722
  CC50: 63.5 µM
[1]; Tox21_110001=Tox21_300312
  CC50: 41 µM

## CCCCCCCCCCCCCCCCn1cc[n+](C)c1 [1-Hexadecyl-3-methylimidazolium chloride]
[1]; Tox21_110001=Tox21_200600
  CC50: 21.4 µM

## CCCCCCCCCCCCn1cc[n+](C)c1 [1-Dodecyl-3-methylimidazolium bromide]
[1]; Tox21_110001=Tox21_202628
  CC50: 80.1 µM

## CC[C@H](c1ccc(O)cc1)[C@@H](CC)c1ccc(O)cc1 [meso-Hexestrol]
[1]; Tox21_110001=Tox21_110377
  CC50: 13.9 µM
[1]; Tox21_110001=Tox21_301456
  CC50: 47 µM

## COc1ccc(N)cc1N [2,4-Diaminoanisole sulfate hydrate]
[1]; Tox21_110001=Tox21_302700
  CC50: 48.9 µM

## CC[C@H]1OC(=O)[C@H](C)[C@@H](O[C@H]2C[C@@](C)(OC)[C@@H](O)[C@H](C)O2)[C@H](C)[C@@H](O[C@@H]2O[C@H](C)C[C@H](N(C)C)[C@H]2O)[C@](C)(O)C[C@@H](C)/C(=N\OCOCCOC)[C@H](C)[C@@H](O)[C@]1(C)O [Roxithromycin]
[1]; Tox21_110001=Tox21_301835
  CC50: 31 µM
